Numbers after ± are expanded uncertainties.
Assay: mn = molality of the nth substance listed, in mol/kg
Details: 298.15 K, 101 kPa, Liquid, Vibrating tube method

mass density (m1 = 0.1262)	mass density (m1 = 0.2647)	mass density (m1 = 0.6529)	mass density (m1 = 1.012)	mass density (m1 = 1.477)	mass density (m1 = 2.03)	mass density (m1 = 2.537)	mass density (m1 = 3.196)	mass density (m1 = 3.75)	mass density (m1 = 0.0212)	mass density (m1 = 0.0584)	mass density (m1 = 0.1012)	mass density (m1 = 0.2396)	mass density (m1 = 0.6942)	mass density (m1 = 1.248)	mass density (m1 = 2.273)	mass density (m1 = 3.243)	mass density (m1 = 4.387)	mass density (m1 = 5.781)	mass density (m1 = 7.087)	Compound
1006.93 ± 0.14 kg/m3	1017.35 ± 0.14 kg/m3	1044.51 ± 0.14 kg/m3	1067.2 ± 0.14 kg/m3	1093.32 ± 0.15 kg/m3	1120.89 ± 0.16 kg/m3	1142.98 ± 0.17 kg/m3	1168.39 ± 0.19 kg/m3	1187 ± 0.2 kg/m3												O=S(=O)(O)CC(O)CN1CCOCC1 (stereo not given) [3-morpholino-2-hydroxypropanesulfonic acid] + O
									998.4 ± 0.13 kg/m3	1000.76 ± 0.13 kg/m3	1003.44 ± 0.13 kg/m3	1011.89 ± 0.13 kg/m3	1037.46 ± 0.13 kg/m3	1064.7 ± 0.13 kg/m3	1106.41 ± 0.14 kg/m3	1138.03 ± 0.15 kg/m3	1168.14 ± 0.16 kg/m3	1195.72 ± 0.17 kg/m3	1217.61 ± 0.18 kg/m3	O=S(=O)(O)CCCN1CCOCC1 [4-morpholinepropanesulfonic acid] + O

Source: the NIST ThermoML archive (doi:10.1016/j.jct.2011.05.036)
